Experimental data as given in US20050250725A1, “Regulation of the P21 gene and uses thereof” (priority 2000, published 2005).

Key:
renal p21 expression = assay: Renal p21 expression after cisplatin administration; assay type: in vivo
Procedure: The present invention examined the effect of p21 in protecting the renal function from cisplatin induced damage. An increase in renal p21 expression was observed after ischemia-reperfusion, urinary tract obstruction and cisplatin administration (FIG. 7). Further, to assess the significance of p21 in renal function, blood urea nitrogen was measured in mice with and without p21 gene subsequent to cisplatin administration. It was observed that the blood urea nitrogen for mice lacking the p21 gene was retained to a higher degree than the mice with p21 gene (FIG. 8).

renal cells = assay type: cell-based
Procedure: Percent apoptosis is also indicated.
Next, the cytoprotective effect of histone deacetylase inhibitors such as phenylbutyrate on renal cells was examined. Cells were control cells, or exposed to cisplatin (50 uM) alone, to phenylbutyrate (100 uM) or to phenybutyrate and cisplatin.

Compound	renal p21 expression (renal p21 expression)	protection from cisplatin-induced apoptosis (renal cells; prior exposure to phenylbutyrate, then cisplatin)	distribution of DNA (renal cells; renal cells exposed to phenylbutyrate 100 uM and cisplatin 50 uM)
N.N.[Cl][Pt][Cl] [cisplatin]	increase	–	–
phenylbutyrate	–	protected from apoptosis	normal distribution of DNA
